Results: PubChem BioAssay (NCI)
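The compound was tested at five concentrations on cells cultured in 96-well plates, with a 48-hour exposure period. TGI marks complete inhibition of growth.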

Columns and labels:
Experiment in all cases: NCI tumour cell line growth inhibition, 48 h
TK-10 renal = system: TK-10 renal
RPMI-8226 leukemia = system: RPMI-8226 leukemia
MOLT-4 leukemia = system: MOLT-4 leukemia
LXFL 529 NSCLC = system: LXFL 529 NSCLC
SF-539 CNS = system: SF-539 CNS
DMS 114 small cell lung = system: DMS 114 small cell lung
NCI-H522 lung = system: NCI-H522 lung
EKVX NSCLC = system: EKVX NSCLC
MALME-3M melanoma = system: MALME-3M melanoma
SW-620 colon = system: SW-620 colon
SK-MEL-28 melanoma = system: SK-MEL-28 melanoma
OVCAR-4 ovarian = system: OVCAR-4 ovarian
RXF-631 renal = system: RXF-631 renal
SK-MEL-2 melanoma = system: SK-MEL-2 melanoma
OVCAR-3 ovarian = system: OVCAR-3 ovarian
HCT-15 colon = system: HCT-15 colon
HOP-18 NSCLC = system: HOP-18 NSCLC
CAKI-1 renal = system: CAKI-1 renal
KM20L2 colon = system: KM20L2 colon
K-562 leukemia = system: K-562 leukemia
RXF 393 renal = system: RXF 393 renal
HOP-62 NSCLC = system: HOP-62 NSCLC
SN12C renal = system: SN12C renal
SNB-19 CNS = system: SNB-19 CNS
CCRF-CEM leukemia = system: CCRF-CEM leukemia
NCI-H23 lung = system: NCI-H23 lung
HCC-2998 colon = system: HCC-2998 colon
SNB-78 CNS = system: SNB-78 CNS
HOP-92 NSCLC = system: HOP-92 NSCLC
SNB-75 CNS = system: SNB-75 CNS
SF-268 CNS = system: SF-268 CNS
HT29 colon = system: HT29 colon
NCI-H226 lung = system: NCI-H226 lung
UO-31 renal = system: UO-31 renal
HCT-116 colon = system: HCT-116 colon
NCI-H460 lung = system: NCI-H460 lung
SR leukemia = system: SR leukemia
OVCAR-5 ovarian = system: OVCAR-5 ovarian
A549 NSCLC = system: A549 NSCLC
DMS 273 small cell lung = system: DMS 273 small cell lung
XF 498 CNS = system: XF 498 CNS
HL-60(TB) leukemia = system: HL-60(TB) leukemia
LOX IMVI melanoma = system: LOX IMVI melanoma
U251 CNS = system: U251 CNS
COLO 205 colon = system: COLO 205 colon
M14 melanoma = system: M14 melanoma
A498 renal = system: A498 renal
UACC-62 melanoma = system: UACC-62 melanoma
786-0 renal = system: 786-0 renal
SF-295 CNS = system: SF-295 CNS
SK-OV-3 ovarian = system: SK-OV-3 ovarian
IGROV1 ovarian = system: IGROV1 ovarian
KM12 colon = system: KM12 colon
M19-MEL melanoma = system: M19-MEL melanoma
OVCAR-8 ovarian = system: OVCAR-8 ovarian
SK-MEL-5 melanoma = system: SK-MEL-5 melanoma
UACC-257 melanoma = system: UACC-257 melanoma
ACHN renal = system: ACHN renal
DLD-1 colon = system: DLD-1 colon

O=C(O)/C=C\C(=O)c1ccc(Cl)cc1
TGI (TK-10 renal): > 100 µM | TGI (RPMI-8226 leukemia): 66.7 µM | TGI (MOLT-4 leukemia): 49 µM | TGI (LXFL 529 NSCLC): 48.4 µM | TGI (SF-539 CNS): 54.2 µM | TGI (DMS 114 small cell lung): 55.4 µM | TGI (NCI-H522 lung): > 100 µM | TGI (EKVX NSCLC): > 94 µM | TGI (MALME-3M melanoma): 34.5 µM | TGI (SW-620 colon): 50.1 µM | TGI (SK-MEL-28 melanoma): 34.7 µM | TGI (OVCAR-4 ovarian): > 100 µM | TGI (RXF-631 renal): > 100 µM | TGI (SK-MEL-2 melanoma): > 76.8 µM | TGI (OVCAR-3 ovarian): > 73.3 µM | TGI (HCT-15 colon): 50.2 µM | TGI (HOP-18 NSCLC): > 100 µM | TGI (CAKI-1 renal): 47.2 µM | TGI (KM20L2 colon): > 74.7 µM | TGI (K-562 leukemia): 82.8 µM | TGI (RXF 393 renal): 40.5 µM | TGI (HOP-62 NSCLC): > 100 µM | TGI (SN12C renal): > 100 µM | TGI (SNB-19 CNS): > 100 µM | TGI (CCRF-CEM leukemia): 48.7 µM | TGI (NCI-H23 lung): > 86.7 µM | TGI (HCC-2998 colon): > 100 µM | TGI (SNB-78 CNS): > 100 µM | TGI (HOP-92 NSCLC): 47.8 µM | TGI (SNB-75 CNS): > 79 µM | TGI (SF-268 CNS): > 71.1 µM | TGI (HT29 colon): > 64.9 µM | TGI (NCI-H226 lung): > 87.6 µM | TGI (UO-31 renal): 99.8 µM | TGI (HCT-116 colon): > 58.8 µM | TGI (NCI-H460 lung): > 100 µM | TGI (SR leukemia): 52.2 µM | TGI (OVCAR-5 ovarian): > 100 µM | TGI (A549 NSCLC): > 100 µM | TGI (DMS 273 small cell lung): > 31.6 µM | TGI (XF 498 CNS): > 76.6 µM | TGI (HL-60(TB) leukemia): 58.5 µM | TGI (LOX IMVI melanoma): > 61.7 µM | TGI (U251 CNS): > 100 µM | TGI (COLO 205 colon): 34.9 µM | TGI (M14 melanoma): 33.2 µM | TGI (A498 renal): > 100 µM | TGI (UACC-62 melanoma): > 75.4 µM | TGI (786-0 renal): > 78.7 µM | TGI (SF-295 CNS): > 100 µM | TGI (SK-OV-3 ovarian): > 100 µM | TGI (IGROV1 ovarian): > 100 µM | TGI (KM12 colon): 98.9 µM | TGI (M19-MEL melanoma): 55.8 µM | TGI (OVCAR-8 ovarian): > 100 µM | TGI (SK-MEL-5 melanoma): > 100 µM | TGI (UACC-257 melanoma): 38 µM | TGI (ACHN renal): 73.3 µM | TGI (DLD-1 colon): > 100 µM

CC1NOC(=O)C1N=Nc1ccccc1Br (stereo not drawn)
TGI (TK-10 renal): 57.4 µM | TGI (RPMI-8226 leukemia): 91.6 µM | TGI (MOLT-4 leukemia): 67 µM | TGI (LXFL 529 NSCLC): 31.2 µM | TGI (SF-539 CNS): 51.2 µM | TGI (DMS 114 small cell lung): 35.7 µM | TGI (NCI-H522 lung): 33.8 µM | TGI (EKVX NSCLC): 80.3 µM | TGI (MALME-3M melanoma): 50.5 µM | TGI (SW-620 colon): 30.9 µM | TGI (SK-MEL-28 melanoma): 79.8 µM | TGI (OVCAR-4 ovarian): > 100 µM | TGI (RXF-631 renal): > 100 µM | TGI (SK-MEL-2 melanoma): 36.7 µM | TGI (OVCAR-3 ovarian): 43.8 µM | TGI (HCT-15 colon): 84.8 µM | TGI (HOP-18 NSCLC): > 100 µM | TGI (CAKI-1 renal): 38.4 µM | TGI (KM20L2 colon): > 100 µM | TGI (K-562 leukemia): 52.8 µM | TGI (RXF 393 renal): 32 µM | TGI (HOP-62 NSCLC): > 100 µM | TGI (SN12C renal): 59.5 µM | TGI (SNB-19 CNS): > 100 µM | TGI (CCRF-CEM leukemia): 74.2 µM | TGI (NCI-H23 lung): 49.1 µM | TGI (HCC-2998 colon): > 100 µM | TGI (SNB-78 CNS): 88.8 µM | TGI (HOP-92 NSCLC): 52.2 µM | TGI (SNB-75 CNS): 64 µM | TGI (SF-268 CNS): 66 µM | TGI (HT29 colon): > 100 µM | TGI (NCI-H226 lung): 81.2 µM | TGI (UO-31 renal): 33.1 µM | TGI (HCT-116 colon): 92.8 µM | TGI (NCI-H460 lung): 57.9 µM | TGI (SR leukemia): 58.2 µM | TGI (OVCAR-5 ovarian): > 100 µM | TGI (A549 NSCLC): 69 µM | TGI (DMS 273 small cell lung): > 100 µM | TGI (XF 498 CNS): 40 µM | TGI (HL-60(TB) leukemia): 40.8 µM | TGI (LOX IMVI melanoma): > 100 µM | TGI (U251 CNS): 46.1 µM | TGI (COLO 205 colon): 35.7 µM | TGI (M14 melanoma): 43.3 µM | TGI (A498 renal): 51.3 µM | TGI (UACC-62 melanoma): 48.1 µM | TGI (786-0 renal): 39.8 µM | TGI (SF-295 CNS): > 100 µM | TGI (SK-OV-3 ovarian): 99 µM | TGI (IGROV1 ovarian): > 100 µM | TGI (KM12 colon): 44.8 µM | TGI (M19-MEL melanoma): 35.8 µM | TGI (OVCAR-8 ovarian): 44.9 µM | TGI (SK-MEL-5 melanoma): 29.1 µM | TGI (UACC-257 melanoma): 44 µM | TGI (ACHN renal): > 100 µM | TGI (DLD-1 colon): > 100 µM
